Values joined by “and” are separate entries in the source; they are usually repeats but may differ in a detail not shown here. Equal values may be shown once.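 Exposure lasted 48 hours, with cells grown in 96-well plates and compounds tested at five concentrations. GI50 is the concentration that inhibits growth by half. TGI: concentration producing complete growth inhibition.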
Tests used:
Experiment in all cases: NCI anticancer screen, dose series, 48 h
[1] = tested on: DU-145 prostate
[2] = tested on: SW-620 colon
[3] = tested on: HT29 colon
[4] = tested on: CCRF-CEM leukemia
[5] = tested on: OVCAR-3 ovarian
[6] = tested on: KM12 colon
[7] = tested on: EKVX NSCLC
[8] = tested on: UACC-257 melanoma
[9] = tested on: MDA-MB-231 breast
[10] = tested on: PC-3 prostate
[11] = tested on: A498 renal
[12] = tested on: HCT-116 colon
[13] = tested on: MDA-MB-435
[14] = tested on: K-562 leukemia
[15] = tested on: UO-31 renal
[16] = tested on: SK-MEL-5 melanoma
[17] = tested on: SNB-19 CNS
[18] = tested on: HS 578T breast
[19] = tested on: U251 CNS
[20] = tested on: MCF7 breast
[21] = tested on: SK-MEL-28 melanoma
[22] = tested on: SF-295 CNS
[23] = tested on: ACHN renal
[24] = tested on: T-47D breast
[25] = tested on: SN12C renal
[26] = tested on: SK-MEL-2 melanoma
[27] = tested on: NCI-H23 lung
[28] = tested on: SF-539 CNS
[29] = tested on: OVCAR-4 ovarian
[30] = tested on: MOLT-4 leukemia
[31] = tested on: M14 melanoma
[32] = tested on: MALME-3M melanoma
[33] = tested on: HOP-92 NSCLC
[34] = tested on: RXF 393 renal
[35] = tested on: IGROV1 ovarian
[36] = tested on: SK-OV-3 ovarian
[37] = tested on: SNB-75 CNS
[38] = tested on: RPMI-8226 leukemia
[39] = tested on: CAKI-1 renal
[40] = tested on: OVCAR-8 ovarian
[41] = tested on: NCI-H226 lung
[42] = tested on: BT-549 breast
[43] = tested on: COLO 205 colon
[44] = tested on: NCI/ADR-RES ovarian
[45] = tested on: 786-0 renal
[46] = tested on: A549 NSCLC
[47] = tested on: NCI-H460 lung
[48] = tested on: OVCAR-5 ovarian
[49] = tested on: TK-10 renal
[50] = tested on: UACC-62 melanoma
[51] = tested on: MDA-N
[52] = tested on: HCT-15 colon
[53] = tested on: SF-268 CNS
[54] = tested on: HOP-62 NSCLC
[55] = tested on: LOX IMVI melanoma
[56] = tested on: NCI-H522 lung
[57] = tested on: HCC-2998 colon
[58] = tested on: HL-60(TB) leukemia

## COC(=O)c1cc(C)n(CN(Cc2ccccc2)Cn2nc(C(=O)OC)cc2C)n1
[1]
  TGI: > 100 µM
[2]
  TGI: > 78 µM
[3]
  TGI: > 100 µM
[4]
  TGI: > 67.6 µM
[5]
  TGI: > 100 µM
[6]
  TGI: > 100 µM
[7]
  TGI: > 100 µM
[8]
  TGI: > 100 µM
[9]
  TGI: > 100 µM
[10]
  TGI: > 100 µM
[11]
  TGI: > 100 µM
[12]
  TGI: > 59.8 µM
[13]
  TGI: > 100 µM
[14]
  TGI: > 100 µM
[15]
  TGI: > 92.1 µM
[16]
  TGI: > 100 µM
[17]
  TGI: > 100 µM
[18]
  TGI: > 100 µM
[19]
  TGI: > 100 µM
[20]
  TGI: > 100 µM
[21]
  TGI: > 100 µM
[22]
  TGI: > 100 µM
[23]
  TGI: > 65.6 µM
[24]
  TGI: > 100 µM
[25]
  TGI: > 100 µM
[26]
  TGI: > 100 µM
[27]
  TGI: > 100 µM
[28]
  TGI: > 68.7 µM
[29]
  TGI: > 100 µM
[30]
  TGI: > 100 µM
[31]
  TGI: > 100 µM
[32]
  TGI: > 100 µM
[33]
  TGI: > 100 µM
[34]
  TGI: 98 µM
[35]
  TGI: > 100 µM
[36]
  TGI: > 100 µM
[37]
  TGI: > 100 µM
[38]
  TGI: > 62.9 µM
[39]
  TGI: > 100 µM
[40]
  TGI: > 100 µM
[41]
  TGI: > 100 µM
[42]
  TGI: > 100 µM
[43]
  TGI: > 78.1 µM
[44]
  TGI: > 100 µM
[45]
  TGI: > 100 µM
[46]
  TGI: > 100 µM
[47]
  TGI: > 100 µM
[48]
  TGI: > 100 µM
[49]
  TGI: > 100 µM
[50]
  TGI: > 100 µM
[51]
  TGI: > 100 µM
[52]
  TGI: > 58.2 µM
[53]
  TGI: > 100 µM
[54]
  TGI: > 100 µM
[55]
  TGI: > 100 µM
[56]
  TGI: > 100 µM

## O=C(O)C12C3CCC(O3)C1(C(=O)O)C1CCC2O1 (stereo unspecified)
[1]
  TGI: > 100 µM
[2]
  TGI: > 100 µM
[3]
  TGI: > 100 µM
[4]
  TGI: > 100 µM
[5]
  TGI: > 100 µM
[6]
  TGI: > 100 µM
[8]
  TGI: > 100 µM
[9]
  GI50: 42.2 µM and 85.8 µM
  TGI: > 100 µM
[10]
  TGI: > 100 µM
[11]
  TGI: > 100 µM
[12]
  TGI: > 100 µM
[13]
  TGI: > 100 µM
[14]
  TGI: > 100 µM
[15]
  TGI: > 100 µM
[16]
  TGI: > 100 µM
[17]
  TGI: > 100 µM
[18]
  TGI: > 100 µM
[19]
  TGI: > 100 µM
[20]
  TGI: > 100 µM
[21]
  TGI: > 100 µM
[22]
  TGI: > 100 µM
[23]
  TGI: > 100 µM
[24]
  TGI: > 100 µM
[25]
  TGI: > 100 µM
[26]
  TGI: > 100 µM
[27]
  TGI: > 100 µM
[28]
  TGI: > 100 µM
[30]
  TGI: > 100 µM
[31]
  GI50: 16.1 µM and > 100 µM
  TGI: 29.6 µM and > 100 µM
[32]
  TGI: > 100 µM
[57]
  TGI: > 100 µM
[34]
  TGI: > 100 µM
[35]
  TGI: > 100 µM
[36]
  TGI: > 100 µM
[37]
  TGI: > 100 µM
[58]
  TGI: > 100 µM
[38]
  TGI: > 100 µM
[39]
  TGI: > 100 µM
[40]
  TGI: > 100 µM
[41]
  TGI: > 100 µM
[42]
  TGI: > 100 µM
[43]
  TGI: > 100 µM
[44]
  TGI: > 100 µM
[45]
  TGI: > 100 µM
[46]
  TGI: > 100 µM
[47]
  TGI: > 100 µM
[48]
  TGI: > 100 µM
[49]
  TGI: > 100 µM
[50]
  TGI: > 100 µM
[51]
  GI50: 31.3 µM and > 100 µM
  TGI: > 100 µM
[52]
  TGI: > 100 µM
[53]
  TGI: > 100 µM
[54]
  TGI: > 100 µM
[55]
  TGI: > 100 µM
[56]
  TGI: > 100 µM

## C[C@]12CC/C(=N\OCCN3CCCCC3)C=C1CCC1C2CC[C@@]2(C)C1CC[C@]2(C)O (stereo partly specified)
[1]
  TGI: 44.8 µM
[2]
  TGI: 62.8 µM
[3]
  TGI: 10.2 µM
[4]
  TGI: 11.3 µM
[5]
  TGI: 42.8 µM
[6]
  TGI: 26.6 µM
[7]
  TGI: 44.6 µM
[8]
  TGI: 18.9 µM
[9]
  TGI: 28.2 µM
[10]
  TGI: 49.5 µM
[11]
  TGI: 15.4 µM
[12]
  TGI: 21.3 µM
[13]
  TGI: 6.71 µM
[14]
  TGI: 17.9 µM
[15]
  TGI: 23.2 µM
[16]
  TGI: 32.4 µM
[17]
  TGI: 30 µM
[18]
  TGI: 32.1 µM
[19]
  TGI: 26.6 µM
[20]
  TGI: 71.7 µM
[21]
  TGI: 30.4 µM
[22]
  TGI: 14.3 µM
[23]
  TGI: 39.6 µM
[24]
  TGI: 97.2 µM
[25]
  TGI: 33.5 µM
[26]
  TGI: 28.8 µM
[27]
  TGI: 33.5 µM
[28]
  TGI: 22.5 µM
[29]
  TGI: 76 µM
[30]
  TGI: 6.84 µM
[31]
  TGI: 37.7 µM
[32]
  TGI: 23.2 µM
[57]
  TGI: 22.1 µM
[33]
  TGI: 26 µM
[34]
  TGI: 56.5 µM
[35]
  TGI: 35.5 µM
[36]
  TGI: 35 µM
[37]
  TGI: 24.8 µM
[38]
  TGI: 31.5 µM
[39]
  TGI: 23.7 µM
[40]
  TGI: 27 µM
[41]
  TGI: 14.2 µM
[42]
  TGI: 33.5 µM
[43]
  TGI: 20.9 µM
[44]
  TGI: 20.5 µM
[45]
  TGI: 17.3 µM
[46]
  TGI: 35 µM
[47]
  TGI: 17.5 µM
[48]
  TGI: 94.4 µM
[49]
  TGI: 34 µM
[50]
  TGI: 24.8 µM
[51]
  TGI: 11.7 µM
[52]
  TGI: 27.6 µM
[53]
  TGI: 31 µM
[54]
  TGI: 43.7 µM
[55]
  TGI: 15.7 µM
[56]
  TGI: 7.52 µM

— PubChem BioAssay (NCI)
